Measurements reported in patent publication US12571764B2, “Receptor-based biosensors” (STATE OF ISRAEL, MINISTRY OF AGRICULTURE & RURAL …, priority 2020, dated 2026).

What was measured:
[1] = target: T1, Aedes aegypti Orco (Aedes aegypti, UniProt Q178U6); experiment: two-electrode voltage clamp of Xenopus oocytes expressing Orco; assay type: cell-based; conditions: for effect on VUAA1-activated Orco: oocytes expressing Aedes aegypti Orco, 2.10-4 M VUAA1 with equimolar concentration of antagonist
T1 construct: expressed in transfected cells; host or cells: Xenopus oocytes injected with capped Orco RNA from linearized pSP64DV
T1 sequence (Q178U6 1-478): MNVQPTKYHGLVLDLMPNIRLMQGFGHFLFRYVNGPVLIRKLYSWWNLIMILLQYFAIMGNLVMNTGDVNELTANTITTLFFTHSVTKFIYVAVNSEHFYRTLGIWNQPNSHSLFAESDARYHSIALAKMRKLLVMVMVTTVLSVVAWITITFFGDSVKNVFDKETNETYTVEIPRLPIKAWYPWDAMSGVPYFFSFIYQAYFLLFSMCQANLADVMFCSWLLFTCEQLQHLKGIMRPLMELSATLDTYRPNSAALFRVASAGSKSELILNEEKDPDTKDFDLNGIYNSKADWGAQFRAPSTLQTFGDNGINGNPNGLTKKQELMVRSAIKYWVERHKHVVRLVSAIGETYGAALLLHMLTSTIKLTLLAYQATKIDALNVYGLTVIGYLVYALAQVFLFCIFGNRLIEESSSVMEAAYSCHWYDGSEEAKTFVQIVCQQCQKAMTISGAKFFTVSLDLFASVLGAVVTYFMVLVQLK
Excerpt: FIG. 4A-Chemical structures of tested compounds. FIG. 4B-Representative current traces of oocytes expressing Aedes aegypti Orco following exposure to 2.10-4 M VUAA1 alone or in combination with equimolar concentrations of the antagonists octadienal and carvacrol. FIG. 4C-Normalized responses of AaegOrco to VUAA1 alone or in combination with octadienal or carvacrol. Odorants effects were statistically significant (one-way ANOVA followed by Tukey's post-test; P<0.0001; mean responses+s.e.m.; VUAA1 alone, n=7; octadienal & carvacrol n=6).
(§1) Orco expression, electrophysiology and purification. Supply of Orco-rich membranes will be predicated on the functional validation carried out using the two-electrode voltage clamp of Xenopus oocytes expressing this receptor. Expression and recordation of the pharmacological activity of mosquito odorant receptor complexes (ORx-Orco) in Xenopus oocytes has been studies extensively. This technique to study the agonist activity of Orco agonists (e.g., VUAA1) and antagonists (e.g., octadienal and carvacrol) (as shown in FIG. 4A) or associated with ORx has been achieved. In some cases Orco rather than ORx was used in order to reduce potential pitfalls associated with OR complexes. In some cases, ORx alone is not functional without its co-receptor chaperone. Two types of expression vectors adapted to Xenopus oocyte expression are used. pSP64DV was used to record currents reaching over 1 μA from Orco exposed to VUAA1, indicating high protein levels (FIG. 4B). Considering the objective to extract Orco-rich membrane fragments less than <50 nm in length, receptor density should be sufficient to ensure that these short fragments contain Orco. To evaluate Orco density, this gene was expressed using the pCMV6-AC-mKate expression vectors (Origene), or other tagged version. This plasmid functions well in Xenopus oocytes and adds a constitutively fluorescent mKate2 tag on the C-terminus of the protein of interest (here Orco) that can be directly or indirectly (fluorescence immunohistochemistry) detected by confocal scanning laser microscopy. […]

[2] = test system: OR9/OR10; conditions: background, based on cell-based assays; cited from earlier work
[3] = cited from earlier work
[4] = test system: mosquito odorant receptors known as OR8; experiment: mosquito odorant receptor OR8 activation and odorant tuning; assay type: cell-based; conditions: FIG. 17A
Excerpt: (§2) Indeed, any modifications of the double bond saturation, side chain length, chiral center position, or functional substitution of the (R)-1-octen-3-ol chemical structure is sufficient to prevent OR8 from being activated (FIG. 17B).
These studies established OR8 as a sensitive enantioselective odorant receptor, whose narrow odorant tuning is optimal in the nanomolar range, which is excellent in the field of receptor pharmacology. […] OR8 is the epitome of receptor selectivity, being able to reject any slight modification on the (R)-1-octen-3-ol backbone manifesting in complete activation shutdown (FIG. 17B). At a low concentration the receptor is specific to (R)-1-octen-3-ol (FIG. 17C), which is a desirable property for the purpose of using this receptor to detect early signs of microbial contamination or presence.

[5] = test system: OR8 from Aedes aegypti (AaOR8); experiment: mosquito odorant receptor 8 activation by odorants (AaOR8); assay type: cell-based; conditions: FIG. 17A
Excerpt: (§3) FIG. 17B-OR8 is an enantioselective octenol receptor, distinguishing between the (R)-enantiomer, which is the most abundant form in nature, and the(S)-enantiomer.
as §2

[6] = test system: OR8 from Toxorhynchites amboinensis (TaOR8); experiment: mosquito odorant receptor 8 activation by odorants (TaOR8); assay type: cell-based; conditions: FIG. 17A
Excerpt: as §3, §2

[7] = target: T2, Aedes aegypti OR8 (AaOR8) (Aedes aegypti, UniProt Q16MN0); experiment: Activation of mosquito odorant receptor OR8 from Aedes aegypti (AaOR8), FIG. 17A; assay type: cell-based; conditions: molar concentration, read-out: A. agypti OR8 EC50
T2 sequence (Q16MN0 1-422): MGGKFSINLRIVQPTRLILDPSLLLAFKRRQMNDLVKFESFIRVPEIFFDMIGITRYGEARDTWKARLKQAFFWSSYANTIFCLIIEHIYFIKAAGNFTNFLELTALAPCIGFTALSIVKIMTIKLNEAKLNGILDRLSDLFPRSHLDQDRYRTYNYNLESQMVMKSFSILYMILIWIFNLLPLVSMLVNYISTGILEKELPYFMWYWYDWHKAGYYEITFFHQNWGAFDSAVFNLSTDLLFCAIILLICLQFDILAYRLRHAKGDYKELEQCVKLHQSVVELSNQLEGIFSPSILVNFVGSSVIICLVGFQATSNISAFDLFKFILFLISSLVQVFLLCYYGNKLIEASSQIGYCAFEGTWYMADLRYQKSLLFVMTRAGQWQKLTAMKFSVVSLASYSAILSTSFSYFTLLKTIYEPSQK
T2 sequence (Q178U6 1-478 partner): T1 sequence (Q178U6 1-478)
Excerpt: as §3
as §1, with “Considering the objective to extract Orco-rich membrane fragments less than <50 nm in length, receptor density should be sufficient to ensure that these short fragments contain Orco. To evaluate Orco density, this gene was expressed using the pCMV6-AC-mKate expression vectors (Origene), or other tagged version.” left out

[8] = test system: Toxorhynchites amboinensis OR8 (TaOR8); experiment: Activation of mosquito odorant receptor OR8 from Toxorhynchites amboinensis (TaOR8), FIG. 17A; assay type: cell-based; conditions: molar concentration, read-out: T. amboinensis OR8 (TaOR8) EC50
Excerpt: as §3
as §1, with “Considering the objective to extract Orco-rich membrane fragments less than <50 nm in length, receptor density should be sufficient to ensure that these short fragments contain Orco. To evaluate Orco density, this gene was expressed using the pCMV6-AC-mKate expression vectors (Origene), or other tagged version.” left out

[9] = target: OR2 (Anopheles gambiae, UniProt Q8WTE6); conditions: background, based on cell-based assays; cited from earlier work
Sequence of OR2 (Q8WTE6 whole entry, species assumed): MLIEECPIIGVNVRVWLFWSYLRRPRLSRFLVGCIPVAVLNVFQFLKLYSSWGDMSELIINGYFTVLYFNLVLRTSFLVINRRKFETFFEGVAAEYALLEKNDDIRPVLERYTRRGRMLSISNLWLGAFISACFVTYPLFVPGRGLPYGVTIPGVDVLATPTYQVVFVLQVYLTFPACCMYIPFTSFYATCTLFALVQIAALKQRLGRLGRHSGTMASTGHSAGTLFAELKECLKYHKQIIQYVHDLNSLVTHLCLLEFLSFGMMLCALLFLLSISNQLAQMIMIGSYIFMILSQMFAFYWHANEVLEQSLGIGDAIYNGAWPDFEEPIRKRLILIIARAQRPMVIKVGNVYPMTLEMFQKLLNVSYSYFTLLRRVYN
Sequence of OR2 (Q7QCC7 whole entry partner, species assumed): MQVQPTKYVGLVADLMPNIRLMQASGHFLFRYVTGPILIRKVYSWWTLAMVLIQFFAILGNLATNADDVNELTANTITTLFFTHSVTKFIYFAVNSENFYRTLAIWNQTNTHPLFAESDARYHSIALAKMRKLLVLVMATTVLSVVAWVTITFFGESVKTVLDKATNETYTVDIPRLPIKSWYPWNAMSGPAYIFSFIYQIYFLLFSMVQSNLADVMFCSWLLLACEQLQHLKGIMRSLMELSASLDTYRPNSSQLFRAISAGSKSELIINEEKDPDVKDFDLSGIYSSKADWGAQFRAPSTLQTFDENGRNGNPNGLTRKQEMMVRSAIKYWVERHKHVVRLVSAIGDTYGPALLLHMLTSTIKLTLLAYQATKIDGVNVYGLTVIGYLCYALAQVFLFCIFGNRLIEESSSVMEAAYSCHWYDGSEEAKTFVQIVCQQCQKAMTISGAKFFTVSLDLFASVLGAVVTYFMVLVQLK

Compound: CCc1ccc(NC(=O)CSc2nnc(-c3cccnc3)n2CC)cc1 [VUAA1]
- currents recorded from Orco exposed to VUAA1 ([1]; Xenopus oocytes, pSP64DV expression vector): over 1 μA

Compound: octadienal
- effect on VUAA1-activated Orco [1]: inhibit VUAA1-activated Orco

Compound: Cc1ccc(C(C)C)cc1O [carvacrol]
- effect on VUAA1-activated Orco [1]: inhibit VUAA1-activated Orco

Compound: Cc1c[nH]c2ccccc12 [skatole]
- concentration range of selective response of OR9/OR10 [2]: upper picomolar range
- solubility in water [3]: sparingly soluble

Compound: C=C[C@H](O)CCCCC [(R)-1-octen-3-ol]
- concentration range at which OR8 is activated [4]: parts per billion range
- sensitivity of AaOR8 (activating concentration range) [5]: parts per billion range
- sensitivity of TaOR8 (activating concentration range) [6]: parts per billion range

Compound: C=C[C@H](O)CCCCC [(R)-1-Octen-3-ol, (R)-1-octen-3-ol]
- EC50 [7]: 213 nM
- EC50 [8]: 401 nM

Compound: c1ccc2[nH]ccc2c1 [indole]
- concentration range of selective response of OR2 [9]: upper picomolar range
- solubility in water [3]: sparingly soluble
